From patent US8680070B2, “Medical implants containing adenosine receptor agonists and methods for inhibitiing medical implant loosening” (New York University, priority 2007, dated 2014) come the findings set out here.

In one assay the test system is TRAF6 protein. The assay is described as follows: Western blotting of TRAF6 protein in RAW264.7 cells. Type of assay: cell-based, murine. The settings on record: 1 μg/ml for 4 days, then RANKL 30 ng/ml, β-actin as comparison. As to the method:
Western blotting. Osteoclast precursors were preincubated with or without CGS21680 (1 μg/ml) or ZM241385 (1 μg/ml) for 4 days and then stimulated with RANKL (30 ng/ml) for the indicated period. For isolation of total proteins, cells were washed twice with PBS and lysed in RIPA buffer. Proteins were estimated and boiled with sample buffer for 5 min and were subjected to electrophoresis on 10% SDS-PAGE. Proteins were transferred onto a nitrocellulose membrane. Membranes were blocked for 2 hours in blocking solution (5% nonfat dry milk in TBS containing 0.1% Tween 20) and exposed to primary Abs overnight at 4° C. After washing, the membranes were incubated for 1 hour at room temperature with secondary Ab, and the proteins were detected using ECL reagents according to the manufacturer's instructions. To reprobe the membranes with other Abs, the membranes were stripped with 100 mM 2-ME, 2% SDS, and 62.5 mM Tris-HCl (pH 6.9) for 20 min at 50° C., followed by immunoblotting as described above.
On the technique in general: Immunoblotting shows a protein as a band on a membrane.

The test system of a further assay is RAW264.7 cells. The assay is described as follows: Osteoclastogenesis: TRAP-positive multinucleated cells from RANKL-stimulated RAW264.7 cells. Type of assay: cell-based, murine. Conditions: RANKL 30 ng/ml, four days of culture, vs untreated cells, listed as Adenosine A2A receptor antagonist. As to the method: Osteoclast formation was evaluated by quantification of TRAP-positive MNCs as described previously. TRAP is preferentially expressed at high levels in osteoclasts and is considered, especially in the mouse, to be an osteoclast marker. After incubation, cells on wells were washed in PBS, fixed in 4% paraformaldehyde for 10 min, and stained for acid phosphatase in the presence of 0.3 M sodium tartrate (Sigma-Aldrich). The substrate used was napthol AS-BI phosphate (Sigma-Aldrich). Only those cells that were strongly TRAP-positive (dark red) and have more than 3 nuclei were counted by light microscopy. To evaluate the size of the Osteoclast over time, we counted the number of nuclei per OCL in 50 OCLs for each of the three wells(n=150). The mean number of nuclei per OCL (MNN) and SE were calculated for each time-point, and ANOVA analysis was performed to determine statistically significant differences. RAW264.7 is a macrophage cell line having the capacity to form osteoclast-like cells. Because the RAW264.7 cells provide an excellent in vitro model for dissecting the cellular and molecular regulation of osteoclast differentiation and activation, we studied the effect of adenosine A2A receptors on the osteoclasts generated from the RAW264.7 cells. Cell Culture and Osteoclastogenesis. […]

SMILES strings stand for the structures.

With `CCNC(=O)[C@H]1O[C@@H](n2cnc3c(N)nc(NCCc4ccc(CCC(=O)O)cc4)nc32)[C@H](O)[C@@H]1O` [A2A receptor agonist, CGS 21680], in the assay on TRAF6 protein, the TRAF6 levels result is reported as “diminish”. Take `Nc1nc(NCCc2ccc(O)cc2)nc2nc(-c3ccco3)nn12` [adenosine A2A receptor antagonist, ZM241385]: the “osteoclast formation (number of multinucleated TRAP+ osteoclasts)” value with RAW264.7 cells was “increased number”.
